Test results as given in the supplement of paper PMC11061612.

Key:
Test in all cases: combination Emax (second highest fraction inhibited in the dose matrix, 72 h); higher = more inhibition; extreme values may be limits of the assay
[1] = tested on: A253 (Head and Neck Carcinoma)
How it was run: (§1)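 Bliss excess equals the observed combination effect minus the expected value EA + EB − EA·EB, where EA and EB are the effects of each agent alone. Combination Emax is the second-highest inhibition within the matrix. Inhibition was scaled from CellTiter-Glo 2.0 luminescence, with 0 set by vehicle wells and 1 by blank wells, after 72 hours of two-drug dosing of cells plated in 1536-well plates.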

[2] = tested on: A2780 (Ovarian Carcinoma)
How it was run: as §1

[3] = tested on: CESS (Acute Myeloid Leukemia)
How it was run: as §1

[4] = tested on: CGTH-W-1 (Thyroid Gland Carcinoma)
How it was run: as §1

COLO-792 (Melanoma) = tested on: COLO-792 (Melanoma)
How it was run: as §1

[5] = tested on: DU-4475 (Breast Carcinoma)
How it was run: as §1

EB2 (Burkitt's Lymphoma) = tested on: EB2 (Burkitt's Lymphoma)
How it was run: as §1

[6] = tested on: EPLC-272H (Other Solid Carcinomas)
How it was run: as §1

[7] = tested on: GCT (Other Solid Carcinomas)
How it was run: as §1

IM-9 (Non-Cancerous) = tested on: IM-9 (Non-Cancerous)
How it was run: as §1

[8] = tested on: JIMT-1 (Breast Carcinoma)
How it was run: as §1

[9] = tested on: MHH-ES-1 (Ewing's Sarcoma)
How it was run: as §1

[10] = tested on: NCI-H1651 (Lung Adenocarcinoma)
How it was run: as §1

[11] = tested on: NCI-H2087 (Lung Adenocarcinoma)
How it was run: as §1

[12] = tested on: NCI-H441 (Lung Adenocarcinoma)
How it was run: as §1

[13] = tested on: UACC-812 (Breast Carcinoma)
How it was run: as §1

[14] = tested on: GA-10 (Burkitt's Lymphoma)
How it was run: as §1

[15] = tested on: HCC1428 (Breast Carcinoma)
How it was run: as §1

[16] = tested on: Jurkat (T-Lymphoblastic Leukemia)
How it was run: as §1

RH-41 (Rhabdomyosarcoma) = tested on: RH-41 (Rhabdomyosarcoma)
How it was run: as §1

| SMILES | combination Emax [1] | combination Emax [2] | combination Emax [3] | combination Emax [4] | combination Emax (COLO-792 (Melanoma)) | combination Emax [5] | combination Emax (EB2 (Burkitt's Lymphoma)) | combination Emax [6] | combination Emax [7] | combination Emax (IM-9 (Non-Cancerous)) | combination Emax [8] | combination Emax [9] | combination Emax [10] | combination Emax [11] | combination Emax [12] | combination Emax [13] | combination Emax [14] | combination Emax [15] | combination Emax [16] | combination Emax (RH-41 (Rhabdomyosarcoma)) |
| --- | --- | --- | --- | --- | --- | --- | --- | --- | --- | --- | --- | --- | --- | --- | --- | --- | --- | --- | --- | --- |
| CCc1c2c(nc3ccc(O)cc13)-c1cc3c(c(=O)n1C2)COC(=O)[C@]3(O)CC [SN-38] + O=C(c1cc(Cc2n[nH]c(=O)c3ccccc23)ccc1F)N1CCN(C(=O)C2CC2)CC1 [Olaparib] (first compound max 0.3 µM, 7x7, partner max 10 µM) | 0.938 | 0.777 | 0.989 | 0.768 | 0.484 | 0.942 | 0.932 | 0.856 | 0.753 | 1 | 0.267 | 0.978 | 0.902 | 0.909 | 0.709 | 0.504 |  |  |  |  |
| NC1(C(=O)N[C@@H](CCO)c2ccc(Cl)cc2)CCN(c2ncnc3[nH]ccc23)CC1 [Capivasertib] + Cn1cnc2c(F)c(Nc3ccc(Br)cc3Cl)c(C(=O)NOCCO)cc21 [Selumetinib] (first compound max 10 µM, 7x7, partner max 10 µM) | 0.89 | 0.828 | 0.672 | 0.47 | 0.8 | 1 | 0.628 | 0.982 | 0.753 | 0.874 | 0.407 | 0.379 | 0.177 | 0.539 | 0.351 |  | 0.77 | 0.171 | 0.686 | 0.934 |
| CC(=O)c1c(C)c2cnc(Nc3ccc(N4CCNCC4)cn3)nc2n(C2CCCC2)c1=O [Palbociclib] + CC1(C)CCC(CN2CCN(c3ccc(C(=O)NS(=O)(=O)c4ccc(NCC5CCOCC5)c([N+](=O)[O-])c4)c(Oc4cnc5[nH]ccc5c4)c3)CC2)=C(c2ccc(Cl)cc2)C1 [Venetoclax] (first compound max 10 µM, 7x7, partner max 1 µM) | 0.0236 | 0.721 | 0.651 | 0.122 | 0.29 | 0.153 | 0.448 | 0.243 | 0.313 | 0.776 | 0.107 | 0.401 | 0.0383 | 0.0514 | 0.224 |  | 0.95 | 0.0427 | 0.412 | 0.329 |
| NC1(C(=O)N[C@@H](CCO)c2ccc(Cl)cc2)CCN(c2ncnc3[nH]ccc23)CC1 [Capivasertib] + CCN(CCO)CCCOc1ccc2c(Nc3cc(CC(=O)Nc4cccc(F)c4)[nH]n3)ncnc2c1 [AZD2811] (first compound max 10 µM, 7x7, partner max 1 µM) | 0.695 | 0.812 | 0.654 | 0.354 | 0.661 | 0.679 | 0.653 | 0.708 | 0.636 | 0.933 | 0.284 | 0.665 | 0.203 | 0.256 | 0.317 |  | 0.918 | 0.465 | 0.717 | 0.943 |
| CC(=O)c1c(C)c2cnc(Nc3ccc(N4CCNCC4)cn3)nc2n(C2CCCC2)c1=O [Palbociclib] + Cn1cnc2c(F)c(Nc3ccc(Br)cc3Cl)c(C(=O)NOCCO)cc21 [Selumetinib] (first compound max 10 µM, 7x7, partner max 10 µM) | 0.189 | 0.825 | 0.658 | 0.14 | 0.5 | 1 | 0.492 | 0.7 | 0.405 | 0.906 | 0.0628 | 0.352 | 0.0478 | 0.501 | 0.327 |  | 0.941 | 0.165 | 0.386 | 0.269 |
| CS(=O)(=O)CCNCc1ccc(-c2ccc3ncnc(Nc4ccc(OCc5cccc(F)c5)c(Cl)c4)c3c2)o1 [Lapatinib] + C[C@@H](Oc1cc(-c2cnn(C3CCNCC3)c2)cnc1N)c1c(Cl)ccc(F)c1Cl [Crizotinib] (first compound max 10 µM, 7x7, partner max 10 µM) | 0.907 | 0.98 | 0.896 | 0.853 | 0.981 | 0.989 | 0.768 | 0.959 | 0.903 | 0.991 | 0.851 | 0.912 | 0.566 | 0.395 | 0.6 |  | 0.98 | 0.471 | 0.947 | 0.991 |
